MIC data for 16 compounds are collected here from patent US10160726B2, “Quinolone derivatives as antibacterials” (priority 2014, dated 2018).

Holding throughout (assay type): cell-based
The subject of assay [1] is E. coli ATCC 25922 (NB27001). Kind of assay: MIC, broth microdilution (CLSI). To be noted: Escherichia coli, ATCC25922; E. coli ATCC 25922; 35° C., 20 hours; read-out: Antibacterial activity (MIC) NB27001. On the technique in general: In broth dilution the organism is exposed to a series of concentrations in liquid medium.
In assay [2] the test system is E. coli NB27177 (efflux deficient CGSC 11430, ΔtolC732::kan). The assay can be described thus: microbe, parasite or virus in culture. Particulars: Escherichia coli, 20 h, read-out: Antibacterial activity (MIC) NB27177.
Assay [3] has as its system P. aeruginosa NB52019 (wild-type PAO1). Kind of assay: MIC, broth microdilution (CLSI). Particulars: Pseudomonas aeruginosa, read-out: Antibacterial activity (MIC) NB52019.
In assay [4] the test system is P. aeruginosa NB52023 (efflux deficient K1542, ΔmexX ΔmexB). The assay can be described thus: microbe, parasite or virus in culture. Particulars: Pseudomonas aeruginosa, 20 h, read-out: Antibacterial activity (MIC) NB52023.
Assay [5] relates to P. aeruginosa NB52023-CDK0006 (gyrA T83I, parC S87L). The assay can be described thus: microbe, parasite or virus in culture. To be noted: Pseudomonas aeruginosa, 20 h, read-out: Antibacterial activity (MIC) NB52023-CDK0006.
In assay [6] the test system is S. aureus ATCC 29213 (NB01001). The assay can be described thus: MIC, broth microdilution (CLSI). To be noted: Staphylococcus aureus, ATCC29213; S. aureus ATCC 29213; 35° C., 20 hours; read-out: Antibacterial activity (MIC) NB01001.
The test system of assay [7] is S. aureus NB01006-AVR005 (gyrA S84L, grlA S80F, grlB E471K). Kind of assay: microbe, parasite or virus in culture. Particulars: Staphylococcus aureus, 20 h, read-out: Antibacterial activity (MIC) NB01006-AVR005.
Where [8] appears, read: P. aeruginosa wild-type PAO1, 35° C., 20 hours.

Converted amounts (≈) assume the structure as drawn. Structures can show the parent of a compound that is named as a salt. Where two headings read alike, the source gives them in different places. Some results are limits rather than exact numbers.

Take `Cc1c(N2CCC(CN)C2)c(F)cc2c(CCN)cc(=O)n(C3CC3)c12.O=C(O)C(F)(F)F` (stereo not shown) [Example 91, 4-(2-aminoethyl)-7-(3-(aminomethyl)pyrrolidin-1-yl)-1-cyclopropyl-6-fluoro-8-methylquinolin-2(1H)-one TFA salt]: the MIC in assay [1] was found to be 8 µg/mL; in assay [2], 1 µg/mL; in assay [3] (setting [8]) it was 16 µg/mL; in assay [4], 8 µg/mL; in assay [5], 16 µg/mL; in assay [6], 1 µg/mL. Also, the MIC in assay [7] turned out to be 1 µg/mL.

Consider `Cc1c(N2CC[C@@H]([C@H](C)N)C2)ccc2c(O)cc(=O)n(C3CC3)c12` [Example 72, 7-((R)-3-((S)-1-aminoethyl)pyrrolidin-1-yl)-1-cyclopropyl-4-hydroxy-8-methylquinolin-2(1H)-one TFA salt], for which the MIC in assay [1] was 32 µg/mL; in assay [2], 16 µg/mL; in assay [3] (PAO1, 20 h) it was 32 µg/mL; in assay [4] it was > 32 µg/mL; in assay [5], > 32 µg/mL; in assay [6], 16 µg/mL. Moreover, the MIC in assay [7] came out at 8 µg/mL.

`Cc1c(N2CCC(F)(CN)C2)c(F)cc2cc(CN)c(=O)n(C3CC3)c12` (stereo not shown) [Example 93, 3-(aminomethyl)-7-(3-(aminomethyl)-3-fluoropyrrolidin-1-yl)-1-cyclopropyl-6-fluoro-8-methylquinolin-2(1H)-one formic acid salt]: the MIC stood at 8 µg/mL in assay [1]; 1 µg/mL in assay [2]; 8 µg/mL in assay [3] (PAO1, 20 h); 4 µg/mL in assay [4]; 8 µg/mL in assay [5]; 2 µg/mL in assay [6]. The MIC in assay [7] stood at 16 µg/mL.

As for `Cc1c(N2CC[C@@H]([C@H](C)N)C2)c(F)cc2c(/C=C/C(=O)O)cc(=O)n(C3CC3)c12` [Example 22, (E)-3-(7-((R)-3-((S)-1-aminoethyl)pyrrolidin-1-yl)-1-cyclopropyl-6-fluoro-8-methyl-2-oxo-1,2-dihydroquinolin-4-yl)acrylic acid], the MIC is 32 µg/mL (≈ 80.1 µM) in assay [1]; 8 µg/mL (≈ 20 µM) in assay [2]; > 32 µg/mL in assay [3] (PAO1, 20 h); > 32 µg/mL in assay [4]; > 32 µg/mL in assay [5]; 8 µg/mL (≈ 20 µM) in assay [6]. Moreover, the MIC in assay [7] was determined as 8 µg/mL (≈ 20 µM).

In the case of `CC(=O)NCCOc1cc(=O)n(C2CC2)c2c(C)c(N3CC[C@@H]([C@H](C)N)C3)c(F)cc12` [Example 54, N-(2-((7-((R)-3-((S)-1-aminoethyl)pyrrolidin-1-yl)-1-cyclopropyl-6-fluoro-8-methyl-2-oxo-1,2-dihydroquinolin-4-yl)oxy)ethyl)acetamide], the MIC in assay [1] is 32 µg/mL (≈ 74.3 µM); in assay [2], 4 µg/mL (≈ 9.29 µM); in assay [3] (PAO1, 20 h), 32 µg/mL (≈ 74.3 µM); in assay [4], > 32 µg/mL; in assay [5], > 32 µg/mL; in assay [6], 8 µg/mL (≈ 18.6 µM). In assay [7], the MIC stood at 4 µg/mL (≈ 9.29 µM).

As for `Cc1c(N2CC[C@@H](CN)C2)c(F)cc2c(C#N)cc(=O)n(C3CC3)c12` [Example 31, (S)-7-(3-(aminomethyl)pyrrolidin-1-yl)-1-cyclopropyl-6-fluoro-8-methyl-2-oxo-1,2-dihydroquinoline-4-carbonitrile], the MIC in assay [1] was 2 µg/mL (≈ 5.88 µM); in assay [2] it was < 0.03 µg/mL; in assay [3] (PAO1, 20 h), 8 µg/mL (≈ 23.5 µM); in assay [4], 2 µg/mL (≈ 5.88 µM); in assay [5] it was 4 µg/mL (≈ 11.8 µM); in assay [6], 0.06 µg/mL (≈ 0.176 µM). In addition, the MIC in assay [7] is 0.06 µg/mL (≈ 0.176 µM).

As for `Cl.N#Cc1c(N2CC[C@H](N)C2)c(F)cc2ccc(=O)n(C3CC3)c12` [Example 113, (S)-7-(3-aminopyrrolidin-1-yl)-1-cyclopropyl-6-fluoro-2-oxo-1,2-dihydroquinoline-8-carbonitrile HCl salt], the MIC was 0.5 µg/mL in assay [1]; 0.125 µg/mL in assay [2]; 16 µg/mL in assay [3] (setting [8]); 2 µg/mL in assay [4]; 4 µg/mL in assay [5]; 8 µg/mL in assay [6]. Also, in assay [7], the MIC is 16 µg/mL.

As to `Cc1c(N2CCC(F)(CN)C2)c(F)c(F)c2c(CN)cc(=O)n(C3CC3)c12` (stereo not shown) [Example 83, 4-(aminomethyl)-7-(3-(aminomethyl)-3-fluoropyrrolidin-1-yl)-1-cyclopropyl-5,6-difluoro-8-methylquinolin-2(1H)-one TFA salt], the MIC in assay [1] was 0.125 µg/mL; in assay [2], < 0.03 µg/mL; in assay [3] (PAO1, 20 h) it was 2 µg/mL; in assay [4] it was 0.25 µg/mL; in assay [5], 0.5 µg/mL; in assay [6], 0.125 µg/mL. Moreover, the MIC in assay [7] stood at 0.125 µg/mL.

As for `Cc1c(N2CC[C@H](CN)C2)c(F)cc2c(C#N)cc(=O)n(C3CC3)c12` [Example 29, (R)-7-(3-(aminomethyl)pyrrolidin-1-yl)-1-cyclopropyl-6-fluoro-8-methyl-2-oxo-1,2-dihydroquinoline-4-carbonitrile], the MIC was 1 µg/mL (≈ 2.94 µM) in assay [1]; 0.03 µg/mL (≈ 0.0881 µM) in assay [2]; 8 µg/mL (≈ 23.5 µM) in assay [3] (PAO1, 20 h); 2 µg/mL (≈ 5.88 µM) in assay [4]; 4 µg/mL (≈ 11.8 µM) in assay [5]; 0.125 µg/mL (≈ 0.367 µM) in assay [6]. Also, the MIC in assay [7] worked out at 0.125 µg/mL (≈ 0.367 µM).

As to `COc1cc(=O)n(C2CC2)c2c(C)c(N3CC[C@@H]([C@H](C)N)C3)ccc12` [Example 68, 7-((R)-3-((S)-1-aminoethyl)pyrrolidin-1-yl)-1-cyclopropyl-4-methoxy-8-methylquinolin-2(1H)-one], the MIC is 32 µg/mL (≈ 93.7 µM) in assay [1]; 0.25 µg/mL (≈ 0.732 µM) in assay [2]; > 32 µg/mL in assay [3] (PAO1, 20 h); > 32 µg/mL in assay [4]; > 32 µg/mL in assay [5]; 0.5 µg/mL (≈ 1.46 µM) in assay [6]. The MIC in assay [7] was found to be 1 µg/mL (≈ 2.93 µM).

With `Cc1c(F)c(N2CCC(CN)C2)c(C)c2c1ccc(=O)n2C1CC1.O=C(O)C(F)(F)F` (stereo not shown) [Example 101, 7-(3-(aminomethyl)pyrrolidin-1-yl)-1-cyclopropyl-6-fluoro-5,8-dimethylquinolin-2(1H)-one TFA salt], the MIC in assay [1] was 8 µg/mL; in assay [2], 0.125 µg/mL; in assay [3] (setting [8]) it was > 32 µg/mL; in assay [4] it was 8 µg/mL; in assay [5] it was 16 µg/mL; in assay [6] it was 0.5 µg/mL. Besides, in assay [7], the MIC stood at 0.125 µg/mL.

Regarding `COc1cc(=O)n(C2CC2)c2c(C)c(-c3ccc(N)nc3)ccc12` [Example 69, 7-(6-aminopyridin-3-yl)-1-cyclopropyl-4-methoxy-8-methylquinolin-2(1H)-one], the MIC in assay [1] is 32 µg/mL (≈ 99.6 µM); in assay [2], 0.5 µg/mL (≈ 1.56 µM); in assay [3] (PAO1, 20 h) it was > 32 µg/mL; in assay [4], > 32 µg/mL; in assay [5], > 32 µg/mL; in assay [6], 2 µg/mL (≈ 6.22 µM). Besides, the MIC in assay [7] came to 2 µg/mL (≈ 6.22 µM).

Take `Cc1c(N2CC[C@@H]([C@H](C)N)C2)c(F)cc2c(OCCC/C(N)=N\O)cc(=O)n(C3CC3)c12` [Example 58, 4-((7-((R)-3-((S)-1-aminoethyl)pyrrolidin-1-yl)-1-cyclopropyl-6-fluoro-8-methyl-2-oxo-1,2-dihydroquinolin-4-yl)oxy)-N′-hydroxybutanimidamide]: the MIC in assay [1] was 32 µg/mL (≈ 71.8 µM); in assay [2], 1 µg/mL (≈ 2.24 µM); in assay [3] (PAO1, 20 h) it was > 32 µg/mL; in assay [4] it was 32 µg/mL (≈ 71.8 µM); in assay [5], 32 µg/mL (≈ 71.8 µM); in assay [6], 4 µg/mL (≈ 8.98 µM). Moreover, the MIC in assay [7] stood at 2 µg/mL (≈ 4.49 µM).

For `Cc1c(N2CCC(CN)C2)c(F)cc2c(CNCCN)cc(=O)n(C3CC3)c12.O=C(O)C(F)(F)F` (stereo not shown) [Example 87, 4-(((2-aminoethyl)amino)methyl)-7-(3-(aminomethyl)pyrrolidin-1-yl)-1-cyclopropyl-6-fluoro-8-methylquinolin-2(1H)-one TFA salt], the MIC in assay [1] was determined as 8 µg/mL; in assay [2], 0.5 µg/mL; in assay [3] (setting [8]), 16 µg/mL; in assay [4], 4 µg/mL; in assay [5] it was 8 µg/mL; in assay [6] it was 0.5 µg/mL. In addition, the MIC in assay [7] was 0.25 µg/mL.

Turning to `CCOC(=O)c1cc(=O)n(C2CC2)c2c(C)c(N3CC[C@@H]([C@H](C)N)C3)c(F)cc12` [Example 35, ethyl 7-((R)-3-((S)-1-aminoethyl)pyrrolidin-1-yl)-1-cyclopropyl-6-fluoro-8-methyl-2-oxo-1,2-dihydroquinoline-4-carboxylate], the MIC in assay [1] was 4 µg/mL (≈ 9.96 µM); in assay [2], < 0.03 µg/mL; in assay [3] (PAO1, 20 h) it was 8 µg/mL (≈ 19.9 µM); in assay [4], 8 µg/mL (≈ 19.9 µM); in assay [5], 8 µg/mL (≈ 19.9 µM); in assay [6] it was 0.06 µg/mL (≈ 0.149 µM). In addition, the MIC in assay [7] is 0.06 µg/mL (≈ 0.149 µM).

Regarding `Cc1c(N2CC[C@H](N)C2)c(F)c(F)c2c(CN)cc(=O)n(C3CC3)c12` [Example 83.6, (S)-4-(aminomethyl)-7-(3-aminopyrrolidin-1-yl)-1-cyclopropyl-5,6-difluoro-8-methylquinolin-2(1H)-one], the MIC in assay [1] came to 0.5 µg/mL (≈ 1.44 µM); in assay [2], 0.06 µg/mL (≈ 0.172 µM); in assay [3] (PAO1, 20 h), 4 µg/mL (≈ 11.5 µM); in assay [4] it was 0.25 µg/mL (≈ 0.718 µM); in assay [5], 0.5 µg/mL (≈ 1.44 µM); in assay [6], 1 µg/mL (≈ 2.87 µM). Also, the MIC in assay [7] amounted to 2 µg/mL (≈ 5.74 µM).
